Results from ChEMBL document CHEMBL1949543, “Synthesis and evaluation of novel monosubstituted sulfonylurea derivatives as antituberculosis agents” (Eur J Med Chem, 2012).
Converted amounts (≈) assume the structure as drawn.

Assays:
[1] = test system: Mycobacterium tuberculosis; assay: Antituberculosis activity against Mycobacterium tuberculosis H37Rv ATCC 27294; format: functional
[2] = Selectivity ratio of IC50 for human THP1 cells to MIC for Mycobacterium tuberculosis H37Rv ATCC 27294; format: functional, THP-1
[3] = test system: Mycobacterium tuberculosis; assay: Antituberculosis activity against Mycobacterium tuberculosis isolate A; format: functional
Mycobacterium avium = assay: Antituberculosis activity against Mycobacterium avium ATCC 25291; format: functional, Mycobacterium avium subsp. avium ATCC 25291
Mycobacterium kansasii = assay: Antituberculosis activity against Mycobacterium kansasii ATCC 12478; format: functional
THP-1 = assay: Cytotoxicity against human THP1 cells after 72 hrs by MTT assay; format: cell-based; conditions: THP-1, 72 h
[4] = Selectivity ratio of IC50 for human THP1 cells to MIC for Mycobacterium tuberculosis isolate A; format: functional, THP-1

`CC(=O)OCC(=O)Nc1ccc(Cl)c(S(=O)(=O)NC(=O)Nc2nccc(C)n2)c1` showed an MIC [1] of over 100 µg/mL.
In the case of `COC(=O)c1ccccc1S(=O)(=O)NC(=O)Nc1nc(C)cc(C)n1` [SULFOMETURON METHYL], the MIC [1] is reported as 10 µg/mL (≈ 27.4 µM).
`Cc1ccnc(NC(=O)NS(=O)(=O)c2cc(NC(=O)C(C)C)ccc2Cl)n1` showed an MIC [1] of over 100 µg/mL.
`COc1ccnc(NC(=O)NS(=O)(=O)c2cc(NC(=O)COC(C)=O)ccc2Cl)n1` showed an MIC [1] of over 100 µg/mL.
`Cc1ccnc(NC(=O)NS(=O)(=O)c2cc(NC(=O)C(C)(C)C)ccc2Cl)n1` showed an MIC [1] of over 100 µg/mL.
With `COc1ccnc(NC(=O)NS(=O)(=O)c2cc(NC(=O)C(C)C)ccc2Cl)n1` the MIC [1] was over 100 µg/mL.
`C=CC(=O)Nc1ccc(Cl)c(S(=O)(=O)NC(=O)Nc2nccc(OC)n2)c1` gave an MIC [1] of 40 µg/mL (≈ 97.1 µM).
`COc1ccnc(NC(=O)NS(=O)(=O)c2cc(NC(=O)C(F)(F)F)ccc2Cl)n1` showed an MIC [1] of over 100 µg/mL.
In the case of `Cc1ccnc(NC(=O)NS(=O)(=O)c2cc(NC(=O)c3ccccc3)ccc2Cl)n1`, the MIC [1] is reported as 100 µg/mL (≈ 224 µM).
For `COc1ccnc(NC(=O)NS(=O)(=O)c2cc(NC=O)ccc2Cl)n1`, the MIC [1] was over 100 µg/mL.
In the case of `CCOC(=O)C(=O)Nc1ccc(Cl)c(S(=O)(=O)NC(=O)Nc2nccc(C)n2)c1`, the MIC [1] is reported as over 100 µg/mL.
For `COc1ccnc(NC(=O)NS(=O)(=O)c2cc(NC(=O)C(F)(F)C(F)(F)C(F)(F)F)ccc2Cl)n1`, the MIC [1] was over 100 µg/mL.
Work on `C=CC(=O)Nc1ccc(Cl)c(S(=O)(=O)NC(=O)Nc2nccc(C)n2)c1` yielded an MIC [1] of 20 µg/mL (≈ 50.5 µM).
For `CC(=O)Nc1ccc(Cl)c(S(=O)(=O)NC(=O)Nc2nccc(C)n2)c1`, the MIC [1] was over 100 µg/mL.
With `COc1ccnc(NC(=O)NS(=O)(=O)c2cc(NC(=O)C(C)Cl)ccc2Cl)n1` (stereo not drawn) the MIC [1] was over 100 µg/mL.
With `COc1ccnc(NC(=O)NS(=O)(=O)c2cc(NC(C)=O)ccc2Cl)n1` the MIC [1] was over 100 µg/mL.
In the case of `COc1ccnc(NC(=O)NS(=O)(=O)c2cc(NC(=O)C3CC3)ccc2Cl)n1`, the MIC [1] is reported as over 100 µg/mL.
For `Cc1ccnc(NC(=O)NS(=O)(=O)c2cc(NC=O)ccc2Cl)n1`, the MIC [1] was over 100 µg/mL.
`Cc1ccnc(NC(=O)NS(=O)(=O)c2cc(NC(=O)C3CC3)ccc2Cl)n1` gave an MIC [1] of over 100 µg/mL.
`Cc1ccnc(NC(=O)NS(=O)(=O)c2cc(NC(=O)C(F)(F)C(F)(F)C(F)(F)F)ccc2Cl)n1` showed an MIC [1] of over 100 µg/mL.
`CCOC(=O)C(=O)Nc1ccc(Cl)c(S(=O)(=O)NC(=O)Nc2nccc(OC)n2)c1` showed an MIC [1] of over 100 µg/mL.
For `Cc1ccnc(NC(=O)NS(=O)(=O)c2cc(NC(=O)C(F)(F)F)ccc2Cl)n1`, the MIC [1] was over 100 µg/mL.
With `Cc1ccnc(NC(=O)NS(=O)(=O)c2cc(NC(=O)C(C)Cl)ccc2Cl)n1` (stereo not drawn) the MIC [1] was over 100 µg/mL.
Work on `COc1ccnc(NC(=O)NS(=O)(=O)c2cc(NC(=O)CCl)ccc2Cl)n1` yielded a Selectivity ratio [2] of 10, an MIC [1] of 10 µg/mL (≈ 23 µM) and an MIC [3] of 10 µg/mL (≈ 23 µM). For the same compound, the MIC (Mycobacterium avium) was over 100 µg/mL, the MIC (Mycobacterium kansasii) was 20 µg/mL (≈ 46.1 µM) and the IC50 (THP-1) was 180 µg/mL (≈ 414 µM). It also gave a Selectivity ratio [4] of 10.
In the case of `Cc1ccnc(NC(=O)NS(=O)(=O)c2cc(NC(=O)CCl)ccc2Cl)n1`, the Selectivity ratio [2] is reported as 10, the MIC [1] is reported as 10 µg/mL (≈ 23.9 µM) and the MIC [3] is reported as 10 µg/mL (≈ 23.9 µM). For the same compound, the MIC (Mycobacterium avium) was over 100 µg/mL, the MIC (Mycobacterium kansasii) was 20 µg/mL (≈ 47.8 µM) and the IC50 (THP-1) was 138 µg/mL (≈ 330 µM). The Selectivity ratio [4] was 10.
`COc1ccnc(NC(=O)NS(=O)(=O)c2cc(NC(=O)C(C)(C)C)ccc2Cl)n1` showed an MIC [1] of over 100 µg/mL.
